Data from paper PMC4666306 (European journal of medicinal chemistry, 2015).

Experiments:
[1] = test system: BaF3 cells transformed with FLT3-ITD containing gatekeeper (F691L) mutation; conditions: 48 h post treatment
[2] = test system: BaF3 cells transformed with FLT3-ITD containing activation loop (D835V) mutation; conditions: 48 h post treatment

Fc1ccc(-c2cnc3cc(-c4ccco4)ccn23)cc1 [Compound 21, 3-(4-Fluorophenyl)-7-(furan-2-yl)imidazo[1,2-a]pyridine]
GI50 +ITD F691L [1]: ineffective | GI50 +ITD D835V [2]: ineffective
